In the assay the target is T1, full length SGK1 (Homo sapiens, UniProt O00141).
T1 construct: 125 μM full length SGK1 (Life Technologies Part #PR7358A); purchased Life Technologies PR7358A
T1 sequence (O00141 1-431): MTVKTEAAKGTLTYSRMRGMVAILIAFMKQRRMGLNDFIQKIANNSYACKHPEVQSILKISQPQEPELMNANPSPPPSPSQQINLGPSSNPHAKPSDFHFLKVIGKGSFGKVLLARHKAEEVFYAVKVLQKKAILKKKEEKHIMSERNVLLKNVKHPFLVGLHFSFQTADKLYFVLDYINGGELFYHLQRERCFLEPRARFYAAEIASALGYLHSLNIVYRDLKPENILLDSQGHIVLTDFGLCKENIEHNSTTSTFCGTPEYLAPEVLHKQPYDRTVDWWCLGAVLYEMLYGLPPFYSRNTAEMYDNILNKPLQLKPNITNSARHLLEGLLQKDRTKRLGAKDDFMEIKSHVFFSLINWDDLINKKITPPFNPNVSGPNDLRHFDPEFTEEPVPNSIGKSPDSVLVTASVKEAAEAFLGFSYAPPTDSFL
Nature of the assay: SGK1 inhibition Assay A (Caliper LabChip electrophoretic separation of fluorescent peptide substrate and phosphorylated product). Type of assay: biochemical. The note with it: Assay A; 20 μM ATP, 40 min incubation; read-out: SGK1 IC50.

As a reminder, the IC50 is the concentration needed to halve the response being measured. Take `CC(=O)NCCOc1cc(C(F)F)sc1C(=O)N[C@@H]1CCCN(c2cc(-c3cnc(C#N)c(C)c3)n3ncnc(N)c23)C1` [Example 426, (R)-3-(2-acetamidoethoxy)-N-(1-(4-amino-7-(6-cyano-5-methylpyridin-3-yl)pyrrolo[2,1-f][1,2,4]triazin-5-yl)piperidin-3-yl)-5-(difluoromethyl)thiophene-2-carboxamide]: the IC50 came out at 30 nM. Under `CC(=O)NCCOc1cc(C(F)F)sc1C(=O)N[C@@H]1CCCN(c2cc(-c3ccc(=O)n(CC(F)F)c3)n3ncnc(N)c23)C1` [Example 427, (R)-3-(2-acetamidoethoxy)-N-(1-(4-amino-7-(1-(2,2-difluoroethyl)-6-oxo-1,6-dihydropyridin-3-yl)pyrrolo[2,1-f][1,2,4]triazin-5-yl)piperidin-3-yl)-5-(difluoromethyl)thiophene-2-carboxamide] stands 12 nM; under `COC(=O)NCCOc1cc(C(F)F)sc1C(=O)N[C@@H]1CCCN(c2cc(C3=CCN(C(=O)OC)C3)n3ncnc(N)c23)C1` [Example 428, Methyl (R)-3-(4-amino-5-(3-(5-(difluoromethyl)-3-(2-((methoxycarbonyl)amino)ethoxy)thiophene-2-carboxamido)piperidin-1-yl)pyrrolo[2,1-f][1,2,4]triazin-7-yl)-2,5-dihydro-1H-pyrrole-1-carboxylate], 21 nM; under `COC(=O)NCCOc1cc(C(F)F)sc1C(=O)N[C@@H]1CCCN(c2cc(-c3cncnc3)n3ncnc(N)c23)C1` [Example 429, methyl (R)-(2-((2-((1-(4-amino-7-(pyrimidin-5-yl)pyrrolo[2,1-f][1,2,4]triazin-5-yl)piperidin-3-yl)carbamoyl)-5-(difluoromethyl)thiophen-3-yl)oxy)ethyl)carbamate], 60 nM. Consider `COC(=O)NCCOc1cc(C(F)F)sc1C(=O)N[C@@H]1CCCN(c2cc(-c3cnc(C#N)c(C)c3)n3ncnc(N)c23)C1` [Example 431, methyl (R)-(2-((2-((1-(4-amino-7-(6-cyano-5-methylpyridin-3-yl)pyrrolo[2,1-f] [1,2,4]triazin-5-yl)piperidin-3-yl)carbamoyl)-5-(difluoromethyl)thiophen-3-yl)oxy)ethyl)carbamate], for which the IC50 is 14 nM. Next, `CC(=O)NCCOc1cc(C(F)F)sc1C(=O)N[C@@H]1CCCN(c2cc(-c3ccc(=O)n(CC(F)F)c3)n3ncnc(N)c23)C1` [Example 432, (R)-3-(2-acetamidoethoxy)-N-(1-(4-amino-7-(1-(2,2-difluoro-ethyl)-6-oxo-1,6-dihydropyri-din-3-yl)pyrrolo[2,1-f] [1,2,4]triazin-5-yl)piperidin-3-yl)-5-(difluoromethyl)thio-phene-2-carboxamide]: 8 nM.

For the compound `CC(=O)N1CC=C(c2cc(N3CCC[C@@H](NC(=O)c4sc(C(F)F)cc4OC4COC4)C3)c3c(N)ncnn23)C1` [Example 433, (R)—N-(1-(7-(1-acetyl-2,5-dihydro-1H-pyrrol-3-yl)-4-aminopyrrolo[2,1-f][1,2,4]triazin-5-yl)piperidin-3-yl)-5-(difluoromethyl)-3-(oxetan-3-yloxy)thiophene-2-carboxamide], the IC50 is 18 nM. Regarding `COC(=O)N1CC=C(c2cc(N3CCC[C@@H](NC(=O)c4sc(C(F)F)cc4OC4COC4)C3)c3c(N)ncnn23)C1` [Example 434, methyl (R)-3-(4-amino-5-(3-(5-(difluoromethyl)-3-(oxetan-3-yloxy)thiophene-2-carboxamido)piperidin-1-yl)pyrrolo[2,1-f][1,2,4]triazin-7-yl)-2,5-dihydro-1H-pyrrole-1-carboxylate], the half-inhibitory concentration (IC50) turned out to be 10 nM. `N#Cc1ccc(-c2cc(N3CCC[C@@H](NC(=O)c4sc(C(F)F)cc4OC4COC4)C3)c3c(N)ncnn23)cn1` [Example 435, (R)-N-(1-(4-amino-7-(6-cyanopyridin-3-yl)pyrrolo[2,1-f][1,2,4]triazin-5-yl)piperidin-3-yl)-5-(difluoromethyl)-3-(oxetan-3-yloxy)thiophene-2-carboxamide]: the IC50 was 7 nM.

Take `Cc1cc(-c2cc(N3CCC[C@@H](NC(=O)c4sc(C(F)F)cc4OC4COC4)C3)c3c(N)ncnn23)cnc1C#N` [Example 436, (R)-N-(1-(4-amino-7-(6-cyano-5-methylpyridin-3-yl)pyrrolo[2,1-f][1,2,4]triazin-5-yl)piperidin-3-yl)-5-(difluoromethyl)-3-(oxetan-3-yloxy)thiophene-2-carboxamide]: the IC50 amounted to 12 nM.

For `N#Cc1cc(-c2cc(N3CCC[C@@H](NC(=O)c4sc(C(F)F)cc4OC4COC4)C3)c3c(N)ncnn23)ccn1` [Example 437, (R)-N-(1-(4-amino-7-(2-cyanopyridin-4-yl)pyrrolo[2,1-f][1,2,4]triazin-5-yl)piperidin-3-yl)-5-(difluoromethyl)-3-(oxetan-3-yloxy)thiophene-2-carboxamide], the IC50 came out at 8 nM. With `CC(=O)N1CC=C(c2cc(N3CCC[C@@H](NC(=O)c4sc(C(F)F)cc4OC4CCN(C)CC4)C3)c3c(N)ncnn23)C1` [Example 438, (R)—N-(1-(7-(1-acetyl-2,5-dihydro-1H-pyrrol-3-yl)-4-aminopyrrolo[2,1-f][1,2,4]triazin-5-yl)piperidin-3-yl)-5-(difluoromethyl)-3-((1-methylpiperidin-4-yl)oxy)thiophene-2-carboxamide], the IC50 is 6 nM. Under `Cc1cc(-c2cc(N3CCC[C@@H](NC(=O)c4sc(C(F)F)cc4OC4CCN(C)CC4)C3)c3c(N)ncnn23)cnc1C#N` [Example 439, (R)-N-(1-(4-amino-7-(6-cyano-5-methylpyridin-3-yl)pyrrolo[2,1-f][1,2,4]triazin-5-yl)piperidin-3-yl)-5-(difluoromethyl)-3-((1-methylpiperidin-4-yl)oxy)thiophene-2-carboxamide] stands 2 nM; under `CN1CCC(Oc2cc(C(F)F)sc2C(=O)N[C@@H]2CCCN(c3cc(-c4ccc(C#N)c(F)c4)n4ncnc(N)c34)C2)CC1` [Example 440, (R)-N-(1-(4-amino-7-(4-cyano-3-fluorophenyl)pyrrolo[2,1-f][1,2,4]triazin-5-yl)piperidin-3-yl)-5-(difluoromethyl)-3-((1-methylpiperidin-4-yl)oxy)thiophenc-2-carboxamide], 3 nM; under `COC(=O)N1CC=C(c2cc(N3CCC[C@@H](NC(=O)c4sc(C(F)F)cc4OC4CCN(C(C)C)CC4)C3)c3c(N)ncnn23)C1` [Example 441, Methyl (R)-3-(4-amino-5-(3-(5-(difluoromethyl)-3-((1-isopropylpiperidin-4-yl)oxy)thiophene-2-carboxamido)piperidin-1-yl)pyrrolo[2,1-f][1,2,4]triazin-7-yl)-2,5-dihydro-1H-pyrrole-1-carboxylate], 10 nM.

Consider `CC(=O)N1CC=C(c2cc(N3CCC[C@@H](NC(=O)c4ccc(N(C)C)cc4)C3)c3c(N)ncnn23)C1` [Example 445], for which the IC50 stood at 5 nM. Under `CC(=O)N1CC=C(c2cc(N3CCC[C@@H](NC(=O)c4cnccn4)C3)c3c(N)ncnn23)C1` [Example 446, (R)-N-(1-(7-(1-acetyl-2,5-dihydro-1H-pyrrol-3-yl)-4-aminopyrrolo[2,1-][1,2,4]triazin-5-yl)piperidin-3-yl)pyrazine-2-carboxamide] stands 126 nM.

The values are drawn from patent US20260250290A1 (BRISTOL-MYERS SQUIBB COMPANY, priority 2023, published 2026).
